# Measurements reported in patent US10376504B2, “Substituted quinolinones as PDE9 inhibitors” (Merck Sharp & Dohme Corp., priority 2015, dated 2019).
# pKi: −log10 of the molar value.
# Molecular target: human PDE9 (PDE9A2) (Homo sapiens (Human), UniProt O76083)
# Assay: PDE9 IMAP fluorescence polarization (FP) inhibition assay
# Format: biochemical
# Conditions: FAM-cGMP substrate 50 nM, room temperature
# Description: The activity of the compounds in accordance with the present invention as PDE9 inhibitors may be readily determined without undue experimentation using a fluorescence polarization (FP) methodology that is well known in the art (Huang, W., et al., J. Biomol Screen, 2002, 7: 215).
# In a typical experiment the PDE9 inhibitory activity of the compounds of the present invention was determined in accordance with the following experimental method. Rhesus PDE9A2 was amplified from rhesus whole brain cDNA (Biochain Institute) essentially as described in Hutson, et al. Neuropharmacology (2011) 61(4):665-676. HEK 293 or CHO cells over-expressing rhesus or rat PDE9A2 (created by DiscoverX from mRNA Genbank accession # NM_138543) respectively were lysed in 20 mM HEPES, 1 mM EDTA buffer with protease inhibitors (Roche, Indianapolis, Ind.). After brief homogenization, cells were pelleted via centrifugation at 75,000×g for 20 min at 4° C. The pellets were re-suspended, centrifuged and re-pelleted again in the same manner. The membrane fraction was collected in 20 mM HEPES, 1 mM MgCl2 with protease inhibitors. Human PDE9 (PDE9A2, GenBank Accession No. NM_001001567), full length with N-terminal GST tag, was purchased from BPS Bioscience. The fluorescence polarization assay for cyclic nucleotide phosphodiesterases was performed using an IMAP® FP kit supplied by Molecular Devices, Sunnyvale, Calif. (product # R8139). IMAP® technology has been applied previously to phosphodiesterase assays (Huang, W., et al., J. Biomol Screen, 2002, 7: 215). Assays were performed at room temperature in 384-well microtiter plates with an incubation volume of 20.2 μL. Solutions of test compounds were prepared in DMSO and serially diluted with DMSO to yield 8 μL of each of 10 solutions differing by 3-fold in concentration, at 32 serial dilutions per plate. 100% inhibition is determined using a known PDE9 inhibitor, such as 1-(2-chlorophenyl)-6-[(2R)-3,3,3-trifluoro-2-methylpropyl]-1,5-dihydro-4H-pyrazolo[3,4-d]pyrimidine-4-one (BAY 73-6691) (Wunder et al, Mol. Pharmacol., 2005, 68(6): 1775-81), (6-[(3S,4S)-4-methyl-1-(pyrimidin-2-ylmethyl)pyrrolidin-3-yl]-1-(tetrahydro-2H-pyran-4-yl)-1,5-dihydro-4H-pyrazolo[3,4-d]pyrimidin-4-one (PF-04447943) (Wager et al., ACS Chemical Neuroscience, 2010, 1:435-449). 0% of inhibition is determined by using DMSO (1% final concentrations). A Labcyte Echo 555 (Labcyte, Sunnyvale, Calif.) is used to dispense 200 nL from each well of the titration plate to the 384 well assay plate. Rhesus membrane preps were diluted to 4 ng/ml, rat membrane preps diluted to 13 ng/ml, and human PDE9A2 diluted to 1 ng/ml. FAM-labeled cGMP substrate (Molecular Devices, Sunnyvale, Calif.) was at a concentration of 100 nM (Km of PDE9 for cGMP is 70-170 nM) in the assay buffer (10 mM Tris HCl, pH 7.2, 10 mM MgCl2, 0.05% NaN3 0.01% Tween-20, and 1 mM DTT). PDE9 enzyme mix and compounds were mixed and incubated at room temperature for 30 min. Following which, FAMcGMP substrate was added, shaken and incubated for an additional 60 min at room temperature. The final concentrations of rhesus and rat membrane preparations were 2 ng/ml and 6.5 ng/ml, respectively, while the human PDE9 was used at a final concentration of 0.5 ng/ml. The final concentration of FAM-cGMP was 50 nM. After the incubation period, the enzymatic reaction was stopped by addition of binding solution (IMAP-FP, Molecular Devices, comprised of 80% Solution A, 20% Solution B and a 1:600 dilution of binding reagent) to each well. The plates were shaken then incubated at room temperature for 1 h prior to determining the fluorescence polarization (mP) using a Perkin Elmer EnVision™ plate reader (Waltham, Mass.).
# Fluorescence polarization (mP) was calculated from the parallel (S) and perpendicular (P) fluorescence of each sample well and the analogous values for the median control well, containing only substrate (So and Po), using the following equation: Polarization(mP)=1000*(S/So−P/Po)/(S/So+P/Po). […]
# human PDE9 (PDE9A2), sequence (O76083 other isoform, or with tags, fused parts or gaps): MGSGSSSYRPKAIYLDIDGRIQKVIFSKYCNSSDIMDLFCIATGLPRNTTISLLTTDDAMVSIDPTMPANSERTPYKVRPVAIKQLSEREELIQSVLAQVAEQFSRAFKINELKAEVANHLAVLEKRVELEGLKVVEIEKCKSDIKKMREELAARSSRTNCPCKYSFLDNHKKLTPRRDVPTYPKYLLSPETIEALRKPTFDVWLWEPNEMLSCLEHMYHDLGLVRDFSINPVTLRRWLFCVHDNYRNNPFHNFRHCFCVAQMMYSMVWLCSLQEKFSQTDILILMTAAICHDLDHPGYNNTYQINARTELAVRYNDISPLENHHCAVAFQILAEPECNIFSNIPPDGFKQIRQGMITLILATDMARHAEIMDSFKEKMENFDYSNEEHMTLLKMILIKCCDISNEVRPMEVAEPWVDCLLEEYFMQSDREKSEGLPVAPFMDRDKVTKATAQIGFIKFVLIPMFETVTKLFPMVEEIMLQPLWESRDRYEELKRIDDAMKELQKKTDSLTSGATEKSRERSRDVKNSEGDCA
row,pKi,SMILES
1,8.12,"N#Cc1c(N2CC[C@@H](n3cccn3)C2)c2ccccc2[nH]c1=O [Example 1-7, (R)-4-(3-[1H-pyrazol-1-yl]pyrrolidin-1-yl)-2-oxo-1,2-dihydroquinoline-3-carbonitrile]"
2,7.74,"N#Cc1c(N2CCCCCC2)c2ccccc2[nH]c1=O [Example 1-8, 4-(azepan-1-yl)-2-oxo-1,2-dihydroquinoline-3-carbonitrile]"
3,5.26,"N#Cc1c(N2CCC2)c2ccccc2[nH]c1=O [Example 1-9, 4-(azetidin-1-yl)-2-oxo-1,2-dihydroquinoline-3-carbonitrile]"
4,7.05,"CCN(CC)c1c(C#N)c(=O)[nH]c2ccccc12 [Example 1-10, 4-(diethylamino)-2-oxo-1,2-dihydroquinoline-3-carbonitrile]"
5,7.58,"CC1(C)CCN(c2c(C#N)c(=O)[nH]c3ccccc23)CC1 [Example 1-11, 4-(4,4-dimethylpiperidin-1-yl)-2-oxo-1,2-dihydroquinoline-3-carbonitrile]"
6,7.15,"N#Cc1c(NCCC2COC2)c2ccccc2[nH]c1=O [Example 1-12, 4-((2-(oxetan-3-yl)ethyl)amino)-2-oxo-1,2-dihydroquinoline-3-carbonitrile]"
